In ChEMBL document CHEMBL4665774, “Design, synthesis and biological evaluation of triaryl compounds as novel 20S proteasome inhibitors” (Bioorg Med Chem Lett, 2020):

Tests used:
[1] = molecular target: T1, Proteasome Macropain subunit MB1 (Homo sapiens, UniProt P28074); assay: Inhibition of human 20S proteasome beta 5
T1 sequence (P28074 whole entry): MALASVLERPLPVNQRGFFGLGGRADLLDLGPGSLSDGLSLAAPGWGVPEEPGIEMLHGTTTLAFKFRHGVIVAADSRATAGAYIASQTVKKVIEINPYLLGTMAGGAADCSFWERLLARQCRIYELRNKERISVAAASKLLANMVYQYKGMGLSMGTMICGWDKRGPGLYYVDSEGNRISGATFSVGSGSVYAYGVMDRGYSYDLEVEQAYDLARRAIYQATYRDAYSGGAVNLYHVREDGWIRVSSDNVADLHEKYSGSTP

Homo sapiens = species on record: Homo sapiens; assay: Inhibition of human 20S proteasome beta 5i subunit at 10 microM relative to control
MDA-MB-468 = assay: Antiproliferative activity against human MDA-MB-468 cells assessed as reduction in cell viability by SRB assay
[2] = molecular target: T2, Proteasome Macropain subunit MB1 (Homo sapiens) (UniProt P28074); assay: Inhibition of human 20S proteasome beta 5 at 10 uM relative to control
T2 sequence (whole entry): T1 sequence (P28074 whole entry)

Row | IC50 [1] [µM] | IC50 (MDA-MB-468) [µM] | inhibition [2] [%] | SMILES | other results
1 |  |  | < 30 | CCCc1ccc(OCC(=O)N(Cc2cncc(-c3cccnc3)c2)C(C)C)cc1 | 
2 |  | 7.6 |  | CCCc1ccc(OCC(=O)N(Cc2nc(-c3cccnc3)no2)C(C)C)cc1 | 
3 | 9.45 |  |  | CCCc1ccc(OCC(=O)N(Cc2cccc(-c3cccs3)c2)C(C)C)cc1 | 
4 | 2.27 | 30.2 |  | CCCc1ccc(OCC(=O)N(Cc2cccc(-c3cncnc3)c2)C(C)C)cc1 | 
5 |  |  | < 30 | CCCc1ccc(OCC(=O)N(Cc2cncc(-c3cncnc3)c2)C(C)C)cc1 | 
6 | 10.7 |  |  | CCCc1ccc(OCC(=O)N(Cc2cccc(-c3ccco3)c2)C(C)C)cc1 | 
7 | 1.14 |  |  | CCCc1ccc(OCC(=O)N(Cc2ccc(-c3cccnc3)cc2)C(C)C)cc1 | 
8 | 33.5 |  |  | CCCc1ccc(OCC(=O)N(Cc2ccc(-c3cccs3)cc2)C(C)C)cc1 | 
9 | 1.37 | > 40 |  | CC(C)N(Cc1ccc(-c2cccnc2)cc1)C(=O)COc1ccc(Oc2ccccc2)cc1 | 
10 | 1.08 | 19.3 |  | CCCc1ccc(OCC(=O)N(Cc2cccc(-c3cccnc3)c2)C(C)C)cc1 | 

Further lines, the compound ahead of its results:

Row | SMILES | IC50 [1] [µM] | IC50 (MDA-MB-468) [µM] | inhibition [2] [%] | other results
11 | CCCc1ccc(OCC(=O)N(Cc2nc(-c3cccs3)no2)C(C)C)cc1 | 0.18 | 27 |  | inhibition (Homo sapiens): 25.3%
12 | CC(C)N(Cc1nc(-c2ccc3ccccc3c2)no1)C(=O)c1cc2ccccc2o1 |  |  | < 30 | 
13 | CC(C)N(Cc1nc(-c2ccc3ccccc3n2)no1)C(=O)c1cc2ccccc2o1 |  |  | < 30 | 
14 | CCCc1ccc(OCC(=O)N(Cc2nc(-c3ccco3)no2)C(C)C)cc1 | 0.12 | 38.8 |  | inhibition (Homo sapiens): 7.3%
15 | CCCc1ccc(OCC(=O)N(Cc2nc(-c3ccc4ccccc4c3)no2)C(C)C)cc1 | 4.31 |  |  | 
16 | CC(C)N(Cc1cccc(-c2ccco2)c1)C(=O)c1cc2ccccc2o1 | 47.3 |  |  | 
17 | CC(C)N(Cc1nc(-c2ccco2)no1)C(=O)c1cc2ccccc2o1 | 0.61 | > 40 |  | 
18 | CC(C)N(Cc1nc(-c2ccco2)no1)C(=O)COc1ccc(Oc2ccccc2)cc1 | 14.7 |  |  | 
19 | CC(C)N(Cc1ccc(-c2cccs2)cc1)C(=O)COc1ccc(Oc2ccccc2)cc1 |  |  | < 30 | 
20 | CC(C)N(Cc1cccc(-c2ccco2)c1)C(=O)c1ccc2ccccc2n1 | 61.6 |  |  | 
21 | CC(C)N(Cc1nc(-c2ccco2)no1)C(=O)c1ccc2ccccc2n1 |  |  | < 30 | 
22 | CC(C)N(Cc1cncc(-c2cncnc2)c1)C(=O)c1cc2ccccc2o1 |  |  | < 30 | 
23 | CC(C)N(Cc1cccc(-c2cccs2)c1)C(=O)c1cc2ccccc2o1 |  |  | < 30 | 
24 | CC(C)N(Cc1cncc(-c2cccnc2)c1)C(=O)c1cc2ccccc2o1 |  |  | < 30 | 
25 | CC(C)N(Cc1cccc(-c2cccnc2)c1)C(=O)c1cc2ccccc2o1 | 20.2 |  |  | 
26 | CC(C)N(Cc1cccc(-c2cccs2)c1)C(=O)c1ccc2ccccc2n1 | 3.36 | 31.9 |  | 
27 | CC(C)N(Cc1cccc(-c2cncnc2)c1)C(=O)c1cc2ccccc2o1 |  |  | < 30 | 
28 | CCCc1ccc(OCC(=O)N(Cc2nc(-c3ccc4ccccc4n3)no2)C(C)C)cc1 | 0.88 | 35 |  | 
29 | CC(C)N(Cc1nc(-c2ccco2)no1)C(=O)c1cnc2ccccc2n1 |  |  | < 30 | 
30 | CC(C)N(Cc1nc(-c2cccs2)no1)C(=O)c1cc2ccccc2o1 | 0.39 | > 40 |  | 
31 | CC(C)N(Cc1nc(-c2cccnc2)no1)C(=O)COc1ccc(Oc2ccccc2)cc1 | 1.61 | 6.8 |  | 
